Structures are written as SMILES.

This is an account of results in US20140127192A1, “METHOD FOR TREATING OSTEOPOROSIS” (AMGEN INC, priority 2011, published 2014).

For test [1], the system named is postmenopausal women with low BMD at lumbar vertebrae, total hip or femoral neck. The experiment in a line: Randomized multicenter study, BMD measured by DXA in postmenopausal women with low BMD. It counts as in vivo, human. Particulars: open label active control arm; for Femoral Neck BMD % Change from Baseline, Mean / Lumbar Vertebrae BMD % Change from Baseline, Mean / Total Hip BMD % Change from Baseline, Mean: 12 months; for mean percent change of lumbar vertebrae BMD from pretreatment baseline: month 6; for mean percent change of distal ⅓ radius BMD from pretreatment baseline: month 12. The method, then:
This example describes in vivo studies wherein an anti-sclerostin antibody improved bone mineral density in postmenopausal women.
A multicenter, international, randomized, parallel group study in postmenopausal women with low BMD at lumbar vertebrae, total hip or femoral neck was conducted. 419 subjects were randomized to receive one of five regimens of an anti-sclerostin antibody, placebo, open label alendronate (ALN), or open label teriparatide (TPTD) for 12 months. The placebo group was further randomized to match the schedules corresponding to the five anti-sclerostin antibody regimens. The subject distribution was as follows: 52 subjects to the placebo arm, 51 subjects to ALN arm, 55 subjects to TPTD arm, and 51, 54, 51, 53, and 52 subjects to anti-sclerostin antibody 70 mg QM, 140 mg Q3M, 140 mg QM, 210 mg Q3M, and 210 mg QM arms, respectively. 383 subjects completed the 12 months of study. Among all subjects enrolled in the study, the mean age was 66.8 years old, 86.4% of subjects were Caucasian, and the mean pretreatment baseline lumbar vertebrae and total hip BMD T-scores were −2.29 and −1.53, respectively. The primary analysis occurred after all subjects had the opportunity to complete the month 12 study visit. BMD was measured by DXA. Overall, the proportions of patients reporting adverse events were balanced between placebo arm and anti-sclerostin antibody arms.

The test system of test [2] is bone resorption marker (CTX) and bone formation markers (P1NP, BSAP, OC). In words: Bone turnover markers in the same study (serum CTX, P1NP, BSAP, OC). It counts as in vivo, human. Particulars: open label active control. The source says: A subject's physiological response to an anti-sclerostin antibody can be gauged by monitoring bone marker levels. Bone markers are products created during the bone remodeling process and are released by bone, osteoblasts, and/or osteoclasts. Fluctuations in bone resorption and/or bone formation “marker” levels imply changes in bone remodeling/modeling. The International Osteoporosis Foundation (IOF) recommends using bone markers to monitor bone density therapies (see, e.g., Delmas et al., Osteoporos Int., Suppl. 6:S2-17 (2000), incorporated herein by reference). Markers indicative of bone resorption (or osteoclast activity) include, for example, C-telopeptide (e.g., C-terminal telopeptide of type 1 collagen (CTX) or serum cross-linked C-telopeptide), N-telopeptide (N-terminal telopeptide of type 1 collagen (NTX)), deoxypyridinoline (DPD), pyridinoline, urinary hydroxyproline, galactosyl hydroxylysine, and tartrate-resistant acid phosphatase (e.g., serum tartrate-resistant acid phosphatase isoform 5b). Bone formation/mineralization markers include, but are not limited to, bone-specific alkaline phosphatase (BSAP), peptides released from N- and C-terminal extension of type I procollagen (P1NP, PICP), and osteocalcin (OC). Several kits are commercially-available to detect and quantify markers in clinical samples, such as urine and blood.
A multicenter, international, randomized, parallel group study in postmenopausal women with low BMD at lumbar vertebrae, total hip or femoral neck was conducted. 419 subjects were randomized to receive one of five regimens of an anti-sclerostin antibody, placebo, open label alendronate (ALN), or open label teriparatide (TPTD) for 12 months. The placebo group was further randomized to match the schedules corresponding to the five anti-sclerostin antibody regimens. […] BMD was measured by DXA. […]

As to `NCCCC(O)(P(=O)(O)O)P(=O)(O)O` [ALN, alendronate], in test [1], the “Femoral Neck BMD % Change from Baseline, Mean” value came to 1.2%; the “Lumbar Vertebrae BMD % Change from Baseline, Mean” value was found to be 4.1%; the “Total Hip BMD % Change from Baseline, Mean” value amounted to 1.9%; the “mean percent change of lumbar vertebrae BMD from pretreatment baseline” value turned out to be 2.6%. Moreover, the “mean percent change of distal ⅓ radius BMD from pretreatment baseline” value in test [1] was −0.3%. Also, the “adaptive response (bone formation markers falling to approximately baseline within two to six months)” value in test [2] is reported as “not observed”.
`CC[C@H](C)[C@H](NC(=O)[C@H](CCC(=O)O)NC(=O)[C@H](CO)NC(=O)[C@@H](NC(=O)[C@@H](N)CO)C(C)C)C(=O)N[C@@H](CCC(N)=O)C(=O)N[C@@H](CC(C)C)C(=O)N[C@@H](CCSC)C(=O)N[C@@H](Cc1cnc[nH]1)C(=O)N[C@@H](CC(N)=O)C(=O)N[C@@H](CC(C)C)C(=O)NCC(=O)N[C@@H](CCCCN)C(=O)N[C@@H](Cc1cnc[nH]1)C(=O)N[C@@H](CC(C)C)C(=O)N[C@@H](CC(N)=O)C(=O)N[C@@H](CO)C(=O)N[C@@H](CCSC)C(=O)N[C@@H](CCC(=O)O)C(=O)N[C@@H](CCCN=C(N)N)C(=O)N[C@H](C(=O)N[C@@H](CCC(=O)O)C(=O)N[C@@H](Cc1c[nH]c2ccccc12)C(=O)N[C@@H](CC(C)C)C(=O)N[C@@H](CCCN=C(N)N)C(=O)N[C@@H](CCCCN)C(=O)N[C@@H](CCCCN)C(=O)N[C@@H](CC(C)C)C(=O)N[C@@H](CCC(N)=O)C(=O)N[C@@H](CC(=O)O)C(=O)N[C@H](C(=O)N[C@@H](Cc1cnc[nH]1)C(=O)N[C@@H](CC(N)=O)C(=O)N[C@@H](Cc1ccccc1)C(=O)O)C(C)C)C(C)C` [TPTD, teriparatide]: in test [1], the “Femoral Neck BMD % Change from Baseline, Mean” value is reported as 1.1%; the “Lumbar Vertebrae BMD % Change from Baseline, Mean” value was 7.1%; the “Total Hip BMD % Change from Baseline, Mean” value came to 1.3%; the “mean percent change of lumbar vertebrae BMD from pretreatment baseline” value is recorded as 4.8%. In addition, the “mean percent change of distal ⅓ radius BMD from pretreatment baseline” value in test [1] is −1.7%. Moreover, in test [2], the “adaptive response (bone formation markers falling to approximately baseline within two to six months)” value is reported as “not observed” and the “bone formation markers over the course of treatment” value is listed as “remained elevated”.
